Results taken from US20260374792A1, “PHENYL-FREE BISCATIONIC QUATERNARY PHOSPHONIUM COMPOUNDS AS ANTIMICROBIAL AGENTS” (priority 2022, published 2026).

system: MSSA (SH1000); assay: MIC against methicillin-susceptible S. aureus (MSSA); type: cell-based; conditions: Staphylococcus aureus, MSSA, 72 h
Description: (§1) The term “minimum inhibitory concentration (MIC)” means the lowest concentration of an antimicrobial agent that will inhibit the visible growth of a microorganism after overnight incubation. MIC values against bacteria, for example, the Gram-positive Staphylococcus aureus and Enterococcus faecalis and the Gram-negative Escherichia coli and Pseudomonas aeruginosa were determined by standard methods. See also P. A. Wayne, Methods for Dilution Antimicrobial Tests for Bacteria that Grow Aerobically; Approved Standard, Ninth Edition, 2012, CLSI Document M07-A9, Vol. 32 No. 2.
(§2) Biological testing procedures were adapted from prior work by Melander and coworkers. For all biological assays, laboratory strains of methicillin-susceptible Staphylococcus aureus MSSA (SH1000), Staphylococcus aureus CA-MRSA (USA300-0114), Staphylococcus aureus HA-MRSA (ATCC 33591), Escherichia coli (MC4100), Enterococcus faecalis (OG1RF), Acinetobacter baumannii (ATCC 17978), were grown with shaking at 37 °C overnight from freezer stocks in 5 mL of the indicated media: SH1000, OG1RF, MC4100, USA300-0114, and ATCC 17978 were grown in BDTM Mueller-Hinton broth (MHB), whereas ATCC 33591 was grown in BDTM tryptic soy broth (TSB). The inoculum were then streaked onto Mueller-Hinton agar (MHA) plates and grown overnight at 37 °C. From the plates, single colonies were selected, diluted into 50 mL of fresh media and grown overnight at 37 °C with shaking for use in the MIC assays. Optical density (OD) measurements were obtained using a SpectraMax iD3 plate reader (Molecular Devices, United States).
(§3) Compounds were serially diluted two-fold from stock solutions (1.0 mM) to yield twelve 100 μL test concentrations, wherein the starting concentration of dimethyl sulfoxide (DMSO) was 2.5%. Overnight S. aureus, E. faecalis, E. coli, A. baumannii, USA300-0114 (CA-MRSA), and ATCC 33591 (HA-MRSA) cultures were diluted to ca. 10^6 CFU/mL in MHB or TSB and regrown to mid-exponential phase, as determined by optical density recorded at 600 nm (OD600). All cultures were then diluted again to ca. 10^6 CFU/mL and 100 μL were inoculated into each well of a U-bottom 96-well plate (Corning, 351177) containing 100 μL of compound solution. Plates were incubated statically at 37 °C for 72 hours upon which wells were evaluated visually for bacterial growth. The MIC was determined as the lowest concentration of compound resulting in no bacterial growth visible to the naked eye, based on the highest value in three independent experiments. Aqueous DMSO controls were conducted as appropriate for each compound.
(§4) The prepared library of biscationic amphiphilic compounds was assessed for performance as antibacterial disinfectants by determining the minimum inhibitory concentration (MIC) for each against a panel of bacteria. The bacteria selected for the study were chosen to evaluate the broad spectrum antimicrobial performance of the QPCs, and therefore, included both Gram-positive and Gram-negative bacterial strains, including those with known antimicrobial resistance mechanisms. These bacteria include the Gram-positive strains of methicillin-susceptible Staphylococcus aureus [MSSA; SH1000], community-acquired methicillin-resistant Staphylococcus aureus [CA-MRSA; USA 300-0114], hospital-acquired methicillin-resistant Staphylococcus aureus [HA-MRSA; ATCC 33591] and the […], Escherichia coli [MC4100], Acinetobacter baumannii [ATCC 17498] and Pseudomonas aeruginosa [PAO1].

For `CCCCCCCCCCCCCCCC[P+](CC)(CC)CC[P+](CC)(CC)CCCCCCCCCCCCCCCC` [^EtP2P-16,16], the MIC was 16 µM.

same assay, conditions: Staphylococcus aureus; MSSA (SH1000); 72 hours, 37 °C; read-out: MIC

Going from `CCCCCCCC[P+](CC[P+](CCCCCCCC)(C1CCCCC1)C1CCCCC1)(C1CCCCC1)C1CCCCC1` [^CyP2P-8,8] to `CCCCCCCCCC[P+](CC[P+](CCCCCCCCCC)(C1CCCCC1)C1CCCCC1)(C1CCCCC1)C1CCCCC1` [^CyP2P-10,10], the MIC falls from 2 µM to 1 µM (2-fold).

`CCCCCCCCCCCC[P+](CC[P+](CCCCCCCCCCCC)(C1CCCCC1)C1CCCCC1)(C1CCCCC1)C1CCCCC1` [^CyP2P-12,12] gave an MIC of 2 µM.

system: CA-MRSA (USA300-0114); assay: MIC against community-acquired methicillin-resistant S. aureus (CA-MRSA); type: cell-based; conditions: Staphylococcus aureus, 72 h
Description: as §1, §2, §3, §4

Going from `CCCCCCCC[P+](CC[P+](CCCCCCCC)(C1CCCCC1)C1CCCCC1)(C1CCCCC1)C1CCCCC1` [^CyP2P-8,8] to `CCCCCCCCCC[P+](CC[P+](CCCCCCCCCC)(C1CCCCC1)C1CCCCC1)(C1CCCCC1)C1CCCCC1` [^CyP2P-10,10], the MIC falls from 2 µM to 1 µM (2-fold).

Compared with `CCCCCCCCCCCC[P+](CC[P+](CCCCCCCCCCCC)(C1CCCCC1)C1CCCCC1)(C1CCCCC1)C1CCCCC1` [^CyP2P-12,12], `CCCCCCCCCCCCCCCC[P+](CC)(CC)CC[P+](CC)(CC)CCCCCCCCCCCCCCCC` [^EtP2P-16,16] is 8-fold higher in MIC: 2 µM for the first, 16 µM for the second.

system: HA-MRSA (ATCC 33591); assay: MIC against hospital-acquired methicillin-resistant S. aureus (HA-MRSA); type: cell-based; conditions: Staphylococcus aureus, 72 h
Description: as §1, §2, §3, §4

Going from `CCCCCCCC[P+](CC[P+](CCCCCCCC)(C1CCCCC1)C1CCCCC1)(C1CCCCC1)C1CCCCC1` [^CyP2P-8,8] to `CCCCCCCCCC[P+](CC[P+](CCCCCCCCCC)(C1CCCCC1)C1CCCCC1)(C1CCCCC1)C1CCCCC1` [^CyP2P-10,10], the MIC falls from 8 µM to 1 µM (8-fold).

Going from `CCCCCCCCCCCC[P+](CC[P+](CCCCCCCCCCCC)(C1CCCCC1)C1CCCCC1)(C1CCCCC1)C1CCCCC1` [^CyP2P-12,12] to `CCCCCCCCCCCCCCCC[P+](CC)(CC)CC[P+](CC)(CC)CCCCCCCCCCCCCCCC` [^EtP2P-16,16], the MIC rises from 2 µM to 32 µM (16-fold).

system: E. faecalis (OG1RF); assay: MIC against E. faecalis; type: cell-based; conditions: Enterococcus faecalis, 72 h
Description: as §1, §2, §3, §4

Going from `CCCCCCCC[P+](CC[P+](CCCCCCCC)(C1CCCCC1)C1CCCCC1)(C1CCCCC1)C1CCCCC1` [^CyP2P-8,8] to `CCCCCCCCCC[P+](CC[P+](CCCCCCCCCC)(C1CCCCC1)C1CCCCC1)(C1CCCCC1)C1CCCCC1` [^CyP2P-10,10], the MIC falls from 63 µM to 8 µM (7.9-fold).

First: CCCCCCCCCCCC[P+](CC[P+](CCCCCCCCCCCC)(C1CCCCC1)C1CCCCC1)(C1CCCCC1)C1CCCCC1 [^CyP2P-12,12]
Second: CCCCCCCCCCCCCCCC[P+](CC)(CC)CC[P+](CC)(CC)CCCCCCCCCCCCCCCC [^EtP2P-16,16]
The MIC of the first is 3.9-fold lower: 16 µM for the first, 63 µM for the second.

system: E. coli (MC4100); assay: MIC against E. coli; type: cell-based; conditions: Escherichia coli, 72 hours, 37 °C
Description: as §1, §2, §3, §4

Going from `CCCCCCCC[P+](CC[P+](CCCCCCCC)(C1CCCCC1)C1CCCCC1)(C1CCCCC1)C1CCCCC1` [^CyP2P-8,8] to `CCCCCCCCCC[P+](CC[P+](CCCCCCCCCC)(C1CCCCC1)C1CCCCC1)(C1CCCCC1)C1CCCCC1` [^CyP2P-10,10], the MIC falls from 63 µM to 8 µM (7.9-fold).

First: CCCCCCCCCCCC[P+](CC[P+](CCCCCCCCCCCC)(C1CCCCC1)C1CCCCC1)(C1CCCCC1)C1CCCCC1 [^CyP2P-12,12]
Second: CCCCCCCCCCCCCCCC[P+](CC)(CC)CC[P+](CC)(CC)CCCCCCCCCCCCCCCC [^EtP2P-16,16]
The MIC of the first is 16-fold lower: 8 µM for the first, 125 µM for the second.

system: A. baumannii; assay: MIC against A. baumannii; type: cell-based; conditions: Acinetobacter baumannii, 72 h
Description: as §1, §2, §3, §4

Going from `CCCCCCCC[P+](CC[P+](CCCCCCCC)(C1CCCCC1)C1CCCCC1)(C1CCCCC1)C1CCCCC1` [^CyP2P-8,8] to `CCCCCCCCCC[P+](CC[P+](CCCCCCCCCC)(C1CCCCC1)C1CCCCC1)(C1CCCCC1)C1CCCCC1` [^CyP2P-10,10], the MIC falls from 125 µM to 8 µM (16-fold).

First: CCCCCCCCCCCC[P+](CC[P+](CCCCCCCCCCCC)(C1CCCCC1)C1CCCCC1)(C1CCCCC1)C1CCCCC1 [^CyP2P-12,12]
Second: CCCCCCCCCCCCCCCC[P+](CC)(CC)CC[P+](CC)(CC)CCCCCCCCCCCCCCCC [^EtP2P-16,16]
The MIC of the first is 65-fold lower: 4 µM for the first, 260 µM for the second.

system: P. aeruginosa (PAO1); assay: MIC against P. aeruginosa; type: cell-based; conditions: Pseudomonas aeruginosa, PAO1, 72 h
Description: as §1, §2, §3, §4

`CCCCCCCCCCCCCCCC[P+](CC)(CC)CC[P+](CC)(CC)CCCCCCCCCCCCCCCC` [^EtP2P-16,16] gave an MIC of 125 µM.

same assay, conditions: Pseudomonas aeruginosa; P. aeruginosa (PAO1); 72 hours, 37 °C; read-out: MIC

Going from `CCCCCCCC[P+](CC[P+](CCCCCCCC)(C1CCCCC1)C1CCCCC1)(C1CCCCC1)C1CCCCC1` [^CyP2P-8,8] to `CCCCCCCCCC[P+](CC[P+](CCCCCCCCCC)(C1CCCCC1)C1CCCCC1)(C1CCCCC1)C1CCCCC1` [^CyP2P-10,10], the MIC falls from 250 µM to 8 µM (31-fold).

Compound `CCCCCCCCCCCC[P+](CC[P+](CCCCCCCCCCCC)(C1CCCCC1)C1CCCCC1)(C1CCCCC1)C1CCCCC1` [^CyP2P-12,12] has an MIC of 16 µM.

system: red blood cells; assay: Red Blood Cell (RBC) Lysis Assay (lysis20); type: cell-based, sheep; conditions: concentration inducing 20% RBC lysis; sheep blood, 1 hour, 37 °C
Description: RBC lysis assays were performed on mechanically defibrinated sheep blood (Hemostat Labs: DSB030). An aliquot of 1.5 mL blood was placed into a microcentrifuge tube and centrifuged at 3,800 rpm for ten minutes. The supernatant was removed, and the cells were resuspended with 1 mL of phosphate-buffered saline (PBS). The suspension was centrifuged as described above, the supernatant was removed, and cells were resuspended 4 additional times in 1 mL PBS. The final cell suspension was diluted twentyfold with PBS. Compounds were serially diluted with PBS two-fold from stock solutions (1.0 mM) to yield 100 μL of twelve test concentrations on a flat-bottom 96-well plate (Corning, 351172), wherein the starting concentration of DMSO was 2.5%. To each of the wells, 100 μL of the twentyfold suspension dilution was then inoculated. TritonX (1% by volume) served as a positive control (100% lysis marker) and sterile PBS served as a negative control (0% lysis marker). Samples were then placed in an incubator at 37 °C and shaken at 200 rpm. After 1 hour, the samples were centrifuged at 3,800 rpm for ten minutes. The absorbance of the supernatant was measured with a UV spectrometer at a 540 nm wavelength. The concentration inducing 20% RBC lysis was then calculated for each compound based upon the absorbances of the TritonX and PBS controls. Aqueous DMSO controls were conducted as appropriate for each compound.
The potential cytotoxicity of the compounds was also considered with the evaluation of hemolysis (lysis20) assays with 20% lysis of red blood cells serving as an indicator of potentially toxic compounds. Finally, the bioactivity of these compounds were benchmarked against a commercial benzalkonium chloride source (BAC; 70% benzyldimethyldodecylammonium chloride, and 30% benzyldimethyltetradecylammonium chloride) as well as some previously reported disinfectant compounds from the inventors' groups; included were bisQPC ^PhP6P-10,10 as well as ^PhP2P-10,10 and 12(2)12. A detailed description of the experimental procedures used to evaluate bioactivity and hemolysis assays are described above.

Compared with `CCCCCCCC[P+](CC[P+](CCCCCCCC)(C1CCCCC1)C1CCCCC1)(C1CCCCC1)C1CCCCC1` [^CyP2P-8,8], `CCCCCCCCCC[P+](CC[P+](CCCCCCCCCC)(C1CCCCC1)C1CCCCC1)(C1CCCCC1)C1CCCCC1` [^CyP2P-10,10] is 7.8-fold lower in Lysis20: 125 µM for the first, 16 µM for the second.

`CCCCCCCCCCCC[P+](CC[P+](CCCCCCCCCCCC)(C1CCCCC1)C1CCCCC1)(C1CCCCC1)C1CCCCC1` [^CyP2P-12,12] and `CCCCCCCCCCCCCCCC[P+](CC)(CC)CC[P+](CC)(CC)CCCCCCCCCCCCCCCC` [^EtP2P-16,16] are the same in Lysis20: 16 µM for the first, 16 µM for the second.
